Assay results reported in patent US7507716B2, “Method for treating pain with prolactin antagonists” (Board of Regents, The University of Texas System, priority 2005, dated 2009).

System: gene expression in trigeminal ganglia
Experiment: Affymetrix microarray of trigeminal ganglia RNA after estradiol administration
Assay type: in vivo, rat
Details: OVX rats, estradiol 80 μg/kg/10 days versus vehicle
Procedure: At the end of the 10th day, animals were used for behavioral experiments or sacrificed by decapitation and the TG of each individual animal were harvested. Harvested tissue was used for RNA isolation, total protein isolation, or for preparing primary cultures of TG neurons.
The ground tissue was used to isolate total RNA by the guanidinium thiocyanate method as described previously (Chomczynski and Sacchi, 1987). The isolated RNA was then treated with a DNA-free reagent (DNAse I; Ambion, Austin, Tex.) and submitted to the Microarray Core Facility at the University of Texas Health Science Center at San Antonio. Additional RNA sample aliquots were used as template for the quantitative real time RT-PCR experiments.
Microarray analysis: Target preparation, hybridization, staining, scanning and analysis of image: RNA samples derived from TG of OVX rats treated with a single dose (80 μg/kg per day) of E2 or vehicle (n=5 for each group) were prepared for hybridization to Affymetrix (Santa Clara, Calif.) RG-U34A arrays according to the manufacturer's instructions. Total RNA was used as a template for double-stranded cDNA synthesis (Superscript Double-Stranded cDNA Synthesis kit, Invitrogen, Carlsbad, Calif.), which was used as a template for biotin-labeled cRNA synthesis (Enzo BioArray High Yield RNA Transcription Labeling Kit, Affymetrix). Purified (RNeasy kit, Qiagen, Valencia, Calif.) labeled-cRNA was hybridized to the rat genomic RG-U34A GeneChips for 16 h at 45° C. Following hybridization, the probe arrays were washed and stained using the GeneChip Fluidics station protocol EukGE-ES2. The intensity of bound dye was measured with an argon laser confocal scanner (GeneArray Scanner, Agilent, Palo Alto, Calif.). The probe arrays were scanned twice and the stored images were aligned and analyzed using the GeneClip software Micro array Analysis Suite (MAS) 5.0 (Affymetrix, Santa Clara, Calif.). Data were imported into the GeneSpring 5.1 software (Silicon Genetics, Redwood City, Calif.) and a list of genes of relative expression of ≧1.5 and ≧0.5 fold was obtained. The data were imported into the R software package and the probe level data were converted to expression measures using the Affy package (Bolstad et al., 2003) from Bioconductor. Expression values for each mRNA were obtained by the Robust Multi-array Analysis (RMA) method as described elsewhere (Boistad et al., 2003).

`C[C@]12CC[C@@H]3c4ccc(O)cc4CC[C@H]3[C@@H]1CC[C@@H]2O` [estradiol, 17-β-estradiol] was tested, and the “Trk A 3′ mRNA sequence expression, GS (change cut-off)” value (probe set AA958274_at) was “≧1.5”, the “Trk A 3′ mRNA sequence expression, SAM” value (probe set AA958274_at) was 1.5 and the “Histidine ammonia lyase expression, GS (change cut-off)” value (probe set AB002393_at) was “≧1.5”. For the same compound, the “Histidine ammonia lyase expression, SAM” value (probe set AB002393_at) was 1.5, the “Ania-10 early gene mRNA, 3′ UTR expression, GS (change cut-off)” value (probe set AF050662UTR#1_at) was “≧1.5” and the “Ania-10 early gene mRNA, 3′ UTR expression, SAM” value (probe set AF050662UTR#1_at) was 1.6. For the same compound, the “Ania-12 early gene mRNA, 3′ UTR expression, GS (change cut-off)” value (probe set AF050664UTR#1_at) was “≧1.5”, the “Ania-12 early gene mRNA, 3′ UTR expression, SAM” value (probe set AF050664UTR#1_at) was 1.5 and the “Insulin receptor substrate 2 (IRS-2) mRNA expression, GS (change cut-off)” value (probe set AF087674_at) was “≧1.5”. The “Insulin receptor substrate 2 (IRS-2) mRNA expression, SAM” value (probe set AF087674_at) was 1.4, the “Interleukin 1 alpha expression, GS (change cut-off)” value (probe set D00403_g_at) was “≧1.5” and the “Interleukin 1 alpha expression, SAM” value (probe set D00403_g_at, false positive by RT-PCR) was 1.3. The “Aldosterone synthase, exon 9 expression, GS (change cut-off)” value (probe set D14097cds_s_at) was “≧1.5”, the “Aldosterone synthase, exon 9 expression, SAM” value (probe set D14097cds_s_at) was 1.5 and the “Cytochrome P450, 3a18 expression, GS (change cut-off)” value (probe set D38381_s_at) was “≧1.5”. For the same compound, the “Cytochrome P450, 3a18 expression, SAM” value (probe set D38381_s_at) was 1.3, the “Prepro bone inducing protein expression, GS (change cut-off)” value (probe set D49494cds_s_at) was “≧1.5” and the “Prepro bone inducing protein expression, SAM” value (probe set D49494cds_s_at) was 1.3. For the same compound, the “Prolactin expression, GS (change cut-off)” value (probe set E03166cds_s_at) was “≧1.5”, the “Prolactin expression, SAM” value (probe set E03166cds_s_at) was 6.9 and the “Nuclear receptor subfamily 1, Group D, member 1 expression, GS (change cut-off)” value (probe set M25801_g_at) was “≧1.5”. The “Nuclear receptor subfamily 1, Group D, member 1 expression, SAM” value (probe set M25801_g_at) was 1.5, the “Protein phosphatase 3, catalytic subunit, beta isoform expression, GS (change cut-off)” value (probe set M31809_at) was “≦1.5” and the “Protein phosphatase 3, catalytic subunit, beta isoform expression, SAM” value (probe set M31809_at) was 0.6. For the same compound, the “Electron transf. flavoprotein (Etfa), mRNA expression, GS (change cut-off)” value (probe set Rc_AA894174_at) was “≦1.5”, the “Electron transf. flavoprotein (Etfa), mRNA expression, SAM” value (probe set Rc_AA894174_at) was 0.7 and the “Arachidonate 12-lipoxygenase expression, GS (change cut-off)” value (probe set S69383_at) was “≦1.5”. For the same compound, the “Arachidonate 12-lipoxygenase expression, SAM” value (probe set S69383_at) was 0.5, the “Prolactin expression, GS (change cut-off)” value (probe set V01244_at) was “≧1.5” and the “Prolactin expression, SAM” value (probe set V01244_at) was 12.8. For the same compound, the “Prolactin expression, GS (change cut-off)” value (probe set V01250cds_s_at) was “≧1.5”, the “Prolactin expression, SAM” value (probe set V01250cds_s_at) was 3 and the “Interleukin 5 (colony-stimulating factor, eosinophil) expression, GS (change cut-off)” value (probe set X54419cds_at) was “≧1.5”. The “Interleukin 5 (colony-stimulating factor, eosinophil) expression, SAM” value (probe set X54419cds_at) was 1.3, the “Cytosolic epoxide hydrolase expression, GS (change cut-off)” value (probe set X60328_at) was “≧1.5” and the “Cytosolic epoxide hydrolase expression, SAM” value (probe set X60328_at) was 1.7. The “Similar to M. musculus pre 45S pre rRNA gene expression, GS (change cut-off)” value (probe set rc_AA859966_i_at) was “≧1.5”, the “Similar to M. musculus pre 45S pre rRNA gene expression, SAM” value (probe set rc_AA859966_i_at) was 4.1 and the “Cytochrome P450, subfamily IIC6 expression, GS (change cut-off)” value (probe set rc_AA945571_sat) was “≧1.5”. The “Cytochrome P450, subfamily IIC6 expression, SAM” value (probe set rc_AA945571_sat) was 1.7.
